{
  "source": "patent US20230023026A1",
  "about": "“METHODS FOR TREATMENT OF DAMAGED BILIARY DUCT” (Mor Research Applications Ltd., priority 2020, published 2023)",
  "key": {"[1]": {"test_system": "EHBD explants from Mdr2−/− mice", "assay": "Ex-vivo bile duct explant culture of Mdr2−/− EHBDs treated with L-NAC (H&E, K19/ZO-1 immunostaining, DAPI)", "assay_type": "cell-based, mouse", "protocol": "Intact extrahepatic bile ducts (EHBDs) from 2-week (N≥12) and 16-week (N≥5) old mice were dissected, placed in ice-cold V-7 cold preservation buffer (Vitron) followed by incubation in cholangiocyte medium (also termed herein “BEC medium”), according to a modification of the protocol described by Karjoo and Wells (Isolation of neonatal extrahepatic cholangiocytes. J. Vis. Exp. 2014). Ducts were placed on roller inserts, treated with N-Acetyl-L-cysteine (L-NAC) and other compounds as noted below, and cultured in a high oxygenation Vitron Dynamic Organ Culture Incubator at 37° C., in 95% O2 and 5% CO2, for 1-3 days. In the incubator (designed to optimally incubate tissue slices), the explants rotated and were exposed to alternating periods in medium and 95% oxygen/5% CO2. Thin slices of tissue remained viable without visible damage or evidence of necrosis or apoptosis for at least 3 days.\n1. Histological H&E staining of cells of ducts tissue was performed according to standard staining protocol, using two dyes: the basic dye haemotoxylin and the acidic dye eosin. Eosin reacted with cationic or basic components (also termed “acidophilic”) and stained red or pink acidophilic structures (e.g., cytoplasmic proteins, intracellular membranes, and extracellular fibers). Haematoxylin, reacted with anionic or acidic components (also termed “basophilic”) in cells and, when used in combination with aluminum ions (Al^3+), stained purplish blue basophilic structures (e.g., the nucleic acids in the nucleus and parts of the cytoplasm that contain RNA (e.g., ribosomes and the rough endoplasmic reticulum)). EHBDs were fixed in 4% paraformaldehyde (PFA) and embedded in paraffin, then sections (4-μm thick) were cut and stained with H&E.\n3. Immunostaining or immunohistochemistry (IHC), which combines anatomical, immunological and biochemical techniques, was conducted in order to image discrete components in EHBDs tissues by using appropriately labeled antibodies that bind specifically to their target antigens in situ Immunohistochemistry made it possible to visualize the high-resolution distribution and localization of specific cellular components within cholangiocytes and within their proper histological context Immunostaining methodology included two main steps: sample preparation and sample staining. In the preparation step, ducts were fixed at 4% PFA for the preservation of cell morphology and tissue architecture. Thin sections of tissues (4-μm thick) attached to individual glass slides where then immunostained as described e.g., in Dipaola et al., 2013 (Hepatology 58:1486-1496, 2013), using antibodies against the cholangiocyte marker keratin 19 (K19, 1:10, Developmental Studies Hybridoma Bank, TROMAIII) and ZO-1 tight junction protein (anti-ZO1 antibody ab96587; Abcam).\n4. […]"}, "[2]": {"test_system": "Mdr2−/− mice", "assay": "In vivo treatment of Mdr2−/− mice with L-NAC in drinking water, liver histology (H&E, Sirius Red)", "set-up": "species or system mouse", "conditions": "4-month old Mdr2−/− mice, 30 gr/L L-NAC in drinking water for 3 weeks", "text": "The homozygote, multidrug resistance protein 2 knockout mouse (Mdr2KO or Mdr2^−/−, also known as Abcb4^−/−) lacks the protein MDR2, a canalicular phospholipid flippase that causes a complete absence of phosphatidylcholine in bile. Mdr2^−/− mice are a well-established model for biliary ducts diseases resulting from, or associated with, highly toxic bile. Multidrug resistance P-glycoproteins, Mdr2 in mouse and MDR3 in human, are choline-containing phospholipid phosphatidylcholine (PC) transporters. In the liver, Mdr2/MDR3 are involved in the translocation of PC from the inner leaflet to the outer leaflet of the canalicular membrane of hepatocytes for direct extraction by bile acids. Bile acids and PC are essential components in the bile that form bile acid containing micelles to thereby reduce the toxic detergent activity of bile acid for hepatocytes and cholangiocytes and to establish physiological bile flow. Mdr2 knockout mouse successively develops liver inflammation, hepatic fibrosis, and hepatocellular carcinoma (HCC) at late ages. The pathogenesis in Mdr2^−/− mice is commonly considered to be caused by increased levels of free toxic bile acids in the biliary canaliculus, which damages hepatocytes and cholangiocytes and provokes liver inflammation. This cholangiopathy is similar to human PSC. The wild type and Mdr2 knockout mice used in embodiments described herein are male and female mice of FVB genetic background (FVB/N and FVB/Mdr2^−/− mice, respectively). All mice were maintained under specific pathogen-free conditions with a 12-hour-light-dark cycle and permitted ad libitum consumption of water and a standard chow. FVB/Mdr2^−/− mice are reproducible model of spontaneously progressive chronic biliary liver disease associated with fibrosis, with histological lesions closely resembling human PSC. Though the Mdr2^−/− mouse is well-established for the investigation of PSC, little is known about EHBD injury in this model. 1. […] The liver repair effect in Mdr2^−/− mice treated with L-NAC was assessed. […]"}},
  "note": "Entries after “also recorded” stand apart in the source; their conditions may differ.",
  "data": [
    {"compound": "CC(=O)N[C@@H](CS)C(=O)O", "note": "[L-NAC, N-acetyl-L-cysteine]", "values": [
      {"measurement": "histological damage, including coarse chromatin and nuclear crowding (H&E)", "setting": "[1]; EHBDs from 2-week old Mdr2−/− mice, 5 μM L-NAC in fresh BEC medium, 24 hours", "value": "improved"},
      {"measurement": "expression of the tight junction protein ZO-1 (immunostaining)", "setting": "[1]; EHBDs from 2-week old Mdr2−/− mice, 5 μM L-NAC, 24 hours", "value": "restored apical tight junction expression"},
      {"measurement": "restoration of the apical tight junction ZO-1 (immunostaining)", "setting": "[1]; EHBDs from 16-week old Mdr2−/− mice, 5 μM L-NAC, 24 hours", "value": "not seen; also recorded: poor ZO-1 restoration"},
      {"measurement": "duct architecture / morphology (H&E)", "setting": "[1]; Mdr2−/− EHBD explants, L-NAC and fresh BEC media for 24 hours", "value": "improved duct architecture with a more normal appearing columnar epithelium; also recorded: substantial morphological recovery"},
      {"measurement": "inflammatory cell infiltration around the portal areas (H&E)", "setting": "[2]", "value": "reduction in inflammatory cell infiltration"},
      {"measurement": "portal fibrosis in liver (H&E)", "setting": "[2]", "value": "reduced portal fibrosis"},
      {"measurement": "liver fibrosis (Sirius Red staining)", "setting": "[2]; vs untreated mouse", "value": "reduction in liver fibrosis"}
    ]}
  ]
}
